{"source": "patent US9066965B1", "about": "“Purified limonin glucoside for prevention and treatment of chronic diseases” (The United States of America, as represented by the …, priority 2012, dated 2015)", "key": {"[1]": {"test": "Complete blood cell count (hematological parameters)", "format": "in vivo, human", "conditions": "End LG, 500 mg/d, 56 days, n = 10, mean ± SEM"}, "[2]": {"test_system": "complement fraction 3 (C3)", "test": "Serum C3 concentration (Integra 400 Plus)", "format": "in vivo, human", "method": "(§1) Plasma concentrations of epidermal growth factor (EGF), interleukin-13 (IL-13), interleukin-1 receptor antagonist (IL-1Ra), and tumor necrosis factor α (TNF α) were analyzed in EDTA plasma on a Sector Imager 2400 instrument using a multiplex kits from MSD (Meso-Scale Discovery, Gaithersburg, Md.). Concentrations of C reactive protein (CRP), and complement 3 and 4 (C3, C4) were analyzed in serum by using an Integra 400 Plus Chemistry Analyzer, (Roche Diagnostics Corp., Indianapolis, Ind.). Serum amyloid A (SAA), soluble intracellular adhesion molecule-1 (sICAM-1), and soluble vascular cell adhesion molecule-1 (sVCAM-1) were tested in serum on a Sector Imager 2400 instrument using a multiplex kit from MSD (Meso-Scale Discovery, Gaithersburg, Md.).\n(§2) Results are presented as means±SEM."}, "[3]": {"test_system": "alkaline phosphatase (ALP)", "conditions": "500 mg/d, 56 days", "method": "(§3) CMP performed on serum samples at the chemistry laboratory of University of California Medical Center by using the Beckman Coulter DxC800. GGT and CKMB were determined in the EDTA plasma. GGT activity was determined by using Integra 400 Chemistry Analyzer, Roche Diagnostics. CKMB concentration was determined by using the Multiplex kits from Mesoscale Discovery (Gaithersburg, Md. 20877).\n(§4) SAS PROC MIXED was used to fit the cross-over model (Littell R C, Milliken G A, Stroup W W, Wolfinger R D, Schabenberger O. SAS System for Mixed Models. Cay, N.C.: SAS Institute Inc.; 2006). Transformations were used when appropriate to stabilize the variances among the diets and periods. The fixed effects were order, diet, the interaction and the covariate; and the random effect was subjects within order. The test for order is a test for carry-over effect. […] Comparisons were made between the values at the end of placebo and LG treatments and using the baseline data as a covariate. Results are presented as means±SEM. Differences were considered statistically significant for P value<0.05."}, "[4]": {"test": "Lipoprotein size and sub fraction concentrations by NMR", "format": "in vivo, human", "method": "Mean particle size, total number of particles and their number within different subclasses of VLDL, LDL, and HDL, were determined by NMR methods. For this analysis frozen plasma samples were shipped in dry ice by overnight delivery to LipoScience Inc., who performed the analysis.\nas §2"}, "Complement 3": {"test_system": "Complement 3", "test": "Plasma complement 3 in MAP 1.6", "format": "in vivo, human", "method": "Plasma samples prepared from blood collected in EDTA-containing tubes were stored at −80° C. until tested. The samples were thawed at room temperature, vortexed, spun at 13,000×g for 5 minutes for clarification and 100 uL aliquots were removed for MAP analysis into a master microtiter plate. Using automated pipetting, an aliquot of each sample was introduced into one of the capture microsphere multiplexes of the Human MAP 1.6. This MAP comprised of 89 antigens that included markers for oxidative stress, inflammation, immune status, T2DM, CVD, blood clotting, cancer, liver and kidney functions. All plasma samples were tested in duplicate. The mixture of sample and capture microspheres were thoroughly mixed and incubated at room temperature for 1 hour. Multiplexed cocktails of biotinylated, reporter antibodies for each multiplex were then added robotically and after thorough mixing, were incubated for an additional hour at room temperature. […] Testing results were determined first for the high, medium and low controls for each multiplex to ensure proper assay performance. Unknown values for each of the analytes localized in a specific multiplex were determined using 4 and 5 parameter, weighted and non-weighted curve fitting algorithms included in the data analysis package. […]"}, "[5]": {"test": "Serum/plasma concentrations of inflammatory markers", "format": "in vivo, human", "method": "as §1, §2"}, "[6]": {"test": "Comprehensive metabolic panel (CMP) on serum", "format": "in vivo, human", "method": "as §3, §4"}, "[7]": {"conditions": "serum, End LG, 500 mg/d, 56 days, n = 10, mean ± SEM"}, "[8]": {"conditions": "plasma, NMR, End LG, 500 mg/d, 56 days, n = 10, mean ± SEM"}, "[9]": {"conditions": "EDTA plasma, End LG, 500 mg/d, 56 days, n = 10, mean ± SEM"}}}
{"molecule": "CC1(C)O[C@H]2CC(=O)OC[C@]23[C@H]2CC[C@@](C)([C@@H](O[C@@H]4O[C@H](CO)[C@@H](O)[C@H](O)[C@H]4O)c4ccoc4)[C@@]4(O[C@@H]4C(=O)O)[C@]2(C)C(=O)C[C@@H]13", "note": "[LG, limonin glucoside]", "values": [{"measurement": "Specific gravity", "setting": "[1]", "result": "1.02 ± 0.00"}, {"measurement": "C3", "setting": "[2]; [7]", "result": "1.18 ± 0.05", "unit": "mg/mL"}, {"measurement": "decrease of serum C3 concentration", "setting": "[2]; vs end of placebo treatment, Integra 400 Plus, p=0.055", "result": 4.8, "unit": "%"}, {"measurement": "Alkaline phosphatase", "setting": "[3]; serum, End LG, n = 10, mean ± SEM", "result": "59.5 ± 3.47", "unit": "U/L"}, {"measurement": "decrease of serum alkaline phosphatase (ALP) activity", "setting": "[3]; vs end of placebo treatment, p=0.025", "result": 10.1, "unit": "%"}, {"measurement": "Calculated TG total", "setting": "[4]; [8]", "result": "150.50 ± 22.84", "unit": "mg/dL"}, {"measurement": "Calculated cholesterol total", "setting": "[4]; [8]", "result": "208.50 ± 5.45", "unit": "mg/dL"}, {"measurement": "HDL cholesterol total", "setting": "[4]; [8]", "result": "46.10 ± 2.65", "unit": "mg/dL"}, {"measurement": "IDL cholesterol", "setting": "[4]; [8]", "result": "8.93 ± 1.83", "unit": "mg/dL"}, {"measurement": "IDL particles", "setting": "[4]; [8]", "result": "71.80 ± 14.77", "unit": "nmols/L"}, {"measurement": "LDL total cholesterol", "setting": "[4]; [8]", "result": "137.60 ± 5.14", "unit": "mg/dL"}, {"measurement": "Large HDL cholesterol", "setting": "[4]; [8]", "result": "20.19 ± 3.24", "unit": "mg/dL"}, {"measurement": "Large HDL particles", "setting": "[4]; [8]", "result": "6.57 ± 0.99", "unit": "μmols/L"}, {"measurement": "Large LDL cholesterol", "setting": "[4]; [8]", "result": "67.24 ± 9.75", "unit": "mg/dL"}, {"measurement": "Large LDL particles", "setting": "[4]; [8]", "result": "495.80 ± 71.47", "unit": "nmols/L"}, {"measurement": "Large VLDL & chylomicron TG", "setting": "[4]; [8]", "result": "33.01 ± 13.18", "unit": "mg/dL"}, {"measurement": "Large VLDL & chylomicron particles", "setting": "[4]; [8]", "result": "3.50 ± 1.64", "unit": "nmol/L"}, {"measurement": "Mean particle size (HDL particles)", "setting": "[4]; [8]", "result": "8.86 ± 0.12", "unit": "nm"}, {"measurement": "Mean particle size (LDL particles)", "setting": "[4]; [8]", "result": "20.94 ± 0.26", "unit": "nm"}, {"measurement": "Mean particle size (VLDL & chylomicron particles)", "setting": "[4]; [8]", "result": "48.60 ± 2.25", "unit": "nm"}, {"measurement": "Medium HDL cholesterol", "setting": "[4]; [8]", "result": "5.87 ± 1.87", "unit": "mg/dL"}, {"measurement": "Medium HDL particles", "setting": "[4]; [8]", "result": "4.54 ± 1.43", "unit": "μmols/L"}, {"measurement": "Medium VLDL & chylomicron particles", "setting": "[4]; [8]", "result": "37.70 ± 8.22", "unit": "nmol/L"}, {"measurement": "Medium VLDL TG", "setting": "[4]; [8]", "result": "53.08 ± 11.93", "unit": "mg/dL"}, {"measurement": "Medium small LDL cholesterol", "setting": "[4]; [8]", "result": "22.60 ± 3.80", "unit": "mg/dL"}, {"measurement": "Medium small LDL particles", "setting": "[4]; [8]", "result": "208.40 ± 35.06", "unit": "nmols/L"}, {"measurement": "Small HDL cholesterol", "setting": "[4]; [8]", "result": "20.03 ± 1.91", "unit": "mg/dL"}, {"measurement": "Small HDL particles", "setting": "[4]; [8]", "result": "20.25 ± 1.94", "unit": "μmols/L"}, {"measurement": "Small LDL cholesterol", "setting": "[4]; [8]", "result": "61.47 ± 10.32", "unit": "mg/dL"}, {"measurement": "Small VLDL & chylomicron particles", "setting": "[4]; [8]", "result": "45.47 ± 5.95", "unit": "nmol/L"}, {"measurement": "Small VLDL TG", "setting": "[4]; [8]", "result": "20.32 ± 2.64", "unit": "mg/dL"}, {"measurement": "Total HDL particles", "setting": "[4]; [8]", "result": "31.35 ± 0.95", "unit": "μmols/L"}, {"measurement": "Total LDL particle", "setting": "[4]; [8]", "result": "1582.80 ± 118.15", "unit": "nmols/L"}, {"measurement": "Total VLDL & chylomicron particles", "setting": "[4]; [8]", "result": "86.69 ± 13.15", "unit": "nmol/L"}, {"measurement": "Total small LDL particles", "setting": "[4]; [8]", "result": "1015.20 ± 169.46", "unit": "nmols/L"}, {"measurement": "VLDL & chylomicron total TG", "setting": "[4]; [8]", "result": "106.50 ± 22.20", "unit": "mg/dL"}, {"measurement": "Very small LDL cholesterol", "setting": "[4]; [8]", "result": "38.91 ± 6.55", "unit": "mg/dL"}, {"measurement": "Very small LDL particles", "setting": "[4]; [8]", "result": "806.80 ± 134.82", "unit": "nmols/L"}, {"measurement": "effect on mean particle sizes and sub-fraction concentrations of VLDL, LDL, HDL", "setting": "[4]; vs end of placebo treatment", "result": "did not alter"}, {"measurement": "Complement 3", "setting": "Complement 3; plasma, End LG, 500 mg/d, 56 days, n = 10, mean ± SEM", "result": "1.17 ± 0.05", "unit": "mg/mL"}, {"measurement": "decrease of plasma C3 concentration", "setting": "Complement 3; vs end of placebo treatment, p=0.014", "result": 6.4, "unit": "%"}, {"measurement": "EGF", "setting": "[5]; [9]", "result": "106.02 ± 52.55", "unit": "pg/mL"}, {"measurement": "IL-1Ra", "setting": "[5]; [9]", "result": "194.93 ± 27.03", "unit": "pg/mL"}, {"measurement": "IL-13", "setting": "[5]; [9]", "result": "2.42 ± 0.27", "unit": "pg/mL"}, {"measurement": "TNF a", "setting": "[5]; [9]", "result": "0.58 ± 0.20", "unit": "pg/mL"}, {"measurement": "C4", "setting": "[5]; [7]", "result": "0.29 ± 0.02", "unit": "mg/mL"}, {"measurement": "CRP", "setting": "[5]; [7]", "result": "1.64 ± 0.25", "unit": "µg/mL"}, {"measurement": "SAA", "setting": "[5]; [7]", "result": "4.06 ± 0.77", "unit": "µg/mL"}, {"measurement": "sICAM-1", "setting": "[5]; [7]", "result": "0.25 ± 0.02", "unit": "µg/mL"}, {"measurement": "sVCAM-1", "setting": "[5]; [7]", "result": "0.41 ± 0.04", "unit": "µg/mL"}, {"measurement": "effect on plasma EGF, IL-13, IL-1Ra, TNF α and serum CRP, SAA, sICAM-1, sVCAM-1, C4", "setting": "[5]; vs end of placebo treatment", "result": "not altered"}, {"measurement": "Albumin", "setting": "[6]; [7]", "result": "3.95 ± 0.05", "unit": "g/dL"}, {"measurement": "Aspartate amino transferase", "setting": "[6]; [7]", "result": "23.3 ± 2.22", "unit": "U/L"}, {"measurement": "CO2", "setting": "[6]; [7]", "result": "29.10 ± 0.48", "unit": "mEq/L"}, {"measurement": "Calcium", "setting": "[6]; [7]", "result": "9.42 ± 0.06", "unit": "mg/dL"}, {"measurement": "Chloride", "setting": "[6]; [7]", "result": "104.80 ± 0.81", "unit": "mEq/L"}, {"measurement": "Creatinine", "setting": "[6]; [7]", "result": "0.84 ± 0.03", "unit": "mg/dL"}, {"measurement": "Glucose", "setting": "[6]; [7]", "result": "89.7 ± 2.58", "unit": "mg/dL"}, {"measurement": "Lactate dehydrogenase", "setting": "[6]; [7]", "result": "126.80 ± 8.90", "unit": "U/L"}, {"measurement": "Potassium", "setting": "[6]; [7]", "result": "4.61 ± 0.12", "unit": "mEq/L"}, {"measurement": "Protein", "setting": "[6]; [7]", "result": "6.59 ± 0.08", "unit": "g/dL"}, {"measurement": "Sodium", "setting": "[6]; [7]", "result": "140.80 ± 0.68", "unit": "mEq/L"}, {"measurement": "Total bilirubin", "setting": "[6]; [7]", "result": "0.81 ± 0.08", "unit": "mg/dL"}, {"measurement": "Urea", "setting": "[6]; [7]", "result": "11.70 ± 0.92", "unit": "mg/dL"}, {"measurement": "effect on circulating concentration of AST", "setting": "[6]; vs end of placebo treatment", "result": "did not significantly decrease"}, {"measurement": "effect on serum albumin, total protein, glucose, aspartate amino transferase, lactate dehydrogenase, calcium, potassium, sodium, chloride, CO2, creatinine, CKMB, total bilirubin, urea", "setting": "[6]; vs end of placebo treatment", "result": "did not alter"}]}
